These results are taken from PMC2920492 (Journal of medicinal chemistry, 2010).

Each structure is given as a SMILES string.

What is called inhibition is the share of the control response that was lost under treatment.

Assay [1] relates to global H3K4me2. The following applies: P19 cell line; cited from earlier work.
For assay [2], the system named is global H3K4me2. Particulars: HCT116 cells, 48 hr exposure, increasing concentrations; cited from earlier work.
The subject of a further assay is global H3K9me2. The following applies: HCT116 cells, 48 hr exposure, increasing concentrations; cited from earlier work.
Assay [3] deals with T1, recombinant human LSD1 (Homo sapiens, UniProt O60341). The following applies: 10 μM; cited from earlier work.
Assay [4] deals with global H3K4me1. Particulars: HCT116 cells, 48 hr exposure, increasing concentrations; cited from earlier work.
Assay [5] has as its system HCT116 human colon carcinoma. Particulars: compound alone; cited from earlier work.
Assay [6] concerns the target T1, recombinant human LSD1. Type of assay: biochemical. The following applies: read-out: reduction of LSD1 activity (inhibition), 10 μM.
The test system of assay [7] is global H3K4me1. Nature of the assay: Global H3K4me1 levels by quantitative Western blot in Calu-6 cells. The following applies: 10 μM. Type of assay: cell-based, human. (In general: Immunoblotting shows a protein as a band on a membrane.)
The test system of the next assay is GATA4. Nature of the assay: GATA4 mRNA re-expression by qPCR in Calu-6 cells. Type of assay: cell-based, human. Particulars: 5 and 10 μM, 24 h.
The test system of assay [8] is global H3K4me2. The experiment in a line: Global H3K4me2 levels by quantitative Western blot in Calu-6 cells. Type of assay: cell-based, human. The following applies: 10 μM.
The test system of the next assay is SFRP2. Nature of the assay: SFRP2 mRNA re-expression by qPCR in Calu-6 cells. Type of assay: cell-based, human. Particulars: 10 μM, 24 h.
The test system of assay [9] is recombinant LSD1/CoRest complex. The following applies: cited from earlier work.

`N[C@@H]1C[C@H]1c1ccccc1` (racemic) [tranylcypromine]: the “global levels of H3K4me2” value with global H3K4me2 [1] is on record as “increase”.
Take `C/N=C(\NC)NCCCNCCCNCCCN/C(=N/C)NC.Cl` [Compound 1c]: in the assay with global H3K4me2 [2], the “global H3K4me2” value is listed as “significant global increases”. The “global H3K9me2 levels” value in the assay with global H3K9me2 is on record as “not affecting”. Besides, at recombinant human LSD1 [3], the “%LSD1 activity remaining” value was 14.1 (from [ref. 25]) %. Further, the “global H3K4me1” value with global H3K4me1 [4] is listed as “significant global increases”.
For the compound `Cl.N=C(NCCCNCCCCCCCNCCCNC(=N)NC(=N)NCCC(c1ccccc1)c1ccccc1)NC(=N)NCCC(c1ccccc1)c1ccccc1` [Compound 2d], in the assay on global H3K4me2 [2], the “global H3K4me2” value is listed as “significant global increases”. For the same compound, the “global H3K9me2 levels” value in the assay with global H3K9me2 is recorded as “not affecting”. For the same compound, the “effect on tumor cell growth” value in assay [5] was “little effect”. In addition, the “global H3K4me1” value in the assay on global H3K4me1 [4] was “significant global increases”. Moreover, the inhibition at 10 µM at recombinant human LSD1 [6] was 82.9%.
Turning to `Cl.Cl.S=C(NCCCNCCCCCCCNCCCNC(=S)NCC(c1ccccc1)c1ccccc1)NCC(c1ccccc1)c1ccccc1` [Compound 25, 1,15-bis-{3-[1-(2,2-diphenylethyl)thioureado]}-4,12-diazapentadecane], the “global H3K4me1 level” value in the assay with global H3K4me1 [7] (24 h) is listed as “significant increases”; in the assay with global H3K4me1 [7] (48 h), “most dramatic increases”. Moreover, the “effect on GATA4 levels” value in the assay on GATA4 is given as “did not produce significant increases”. The “global H3K4me2 level” value was “significant increases” in the assay with global H3K4me2 [8] (24 h) and “most dramatic increases” in the assay on global H3K4me2 [8] (48 h).
`Cl.Cl.S=C(NCCCNCCCCNCCCNC(=S)NCC(c1ccccc1)c1ccccc1)NCC(c1ccccc1)c1ccccc1` [Compound 26, 1,12-bis-{3-[1-(2,2-diphenylethyl)thioureado]}-4,9-diazadodecane]: the “global H3K4me1 level” value was “significant increase” in the assay on global H3K4me1 [7] (24 h) and “increase” with global H3K4me1 [7] (48 h). Also, the “effect on GATA4 levels” value in the assay on GATA4 is recorded as “did not produce significant increases”. For the same compound, the “global H3K4me2 level” value in the assay with global H3K4me2 [8] (24 h) was “decreased”; in the assay on global H3K4me2 [8] (48 h), “reduction”.
In the case of `Cl.Cl.S=C(NCCCNCCCNCCCNC(=S)NCC(c1ccccc1)c1ccccc1)NCC(c1ccccc1)c1ccccc1` [Compound 27, 1,11-bis-{3-[1-(2,2-diphenylethyl)thioureado]}-4,8-diazaundecane], the “global H3K4me1 level” value in the assay on global H3K4me1 [7] (24 h) is reported as “significant increases”. The “increase in SFRP2 expression” value with SFRP2 came to 4.8 fold. The “global H3K4me2 level” value with global H3K4me2 [8] (24 h) is listed as “significant increases”.
Regarding `NNCCc1ccccc1` [phenelzine], the “global levels of H3K4me2” value with global H3K4me2 [1] is “increase”. In addition, the nucleosomal demethylation entry in assay [9] is listed as “inactivate”.
